Measured values published in US20240383874A1, “BENZENE RING DERIVATIVE, AND COMPOSITION AND PHARMACEUTICAL USE THEREOF” (Xizang Haisco Pharmaceutical Co., Ltd., priority 2020, published 2024).
Where a name gives a salt, the structure may show the parent alone.

Tested on: 22RV1 cells
Assay: Experiment 2 on inhibiting 22RV1 cell proliferation (7 days, CellTiter-Glo)
Type: cell-based
Details: Homo sapiens, 22Rv1, 168 h, 1% css-FBS phenol red-free medium, incubated with compound 7 days, read-out: IC50 values on proliferation inhibition of 22RV1 cells
Protocol: Prostate cancer cells 22RV1 were purchased from ATCC, the cell medium was RPMI 1640+10% FBS, and the cells were cultured in an incubator at 37° C. under 5% CO2. On day 1, the cells in an exponential phase were collected. With a 1% css-FBS phenol red-free medium, the cell suspension was adjusted to a corresponding concentration, plated at 2000 cells/well and incubated overnight. On day 2, compounds at different concentrations were added, and the plate was placed in the incubator and incubated for further 7 days. After the incubation was completed, according to operation instructions for a CellTiter-Glo kit (Promega, G7573), 50 μL of CTG solution, which was already pre-melted and equilibrated to room temperature, was added to each well, and the mixtures were uniformly mixed for 2 min using a microplate shaker. The plate was placed at room temperature for 10 min, and then fluorescence signal values were measured using a microplate reader (PHERAstar FSX). The results were processed according to formula (2), the survival rate of the compound at different concentrations was calculated, and the IC50 value of the compound with a survival rate of 50% was calculated using origin9.2 software with DoseResp function, wherein RLU compound was the readout of the treated group, and RLU control was the average value of the DMSO vehicle control group.

Structure (SMILES)	IC50 [nM]
CC(C)(c1ccc(OCc2ccnc(N3CCN(C4CN(CC5CN(c6ccc7c(c6)C(=O)N(C6CCC(=O)NC6=O)C7=O)C5)C4)CC3)n2)cc1)c1cc(Cl)cc(C#N)c1 (stereo not shown) [Compound 57 trifluoroacetate, 3-chloro-5-(2-(4-((2-(4-(1-((1-(2-(2,6-dioxopiperidin-3-yl)-1,3-dioxoisoindolin-5-yl)azetidin-3-yl)methyl)azetidin-3-yl)piperazin-1-yl)pyrimidin-4-yl)methoxy)phenyl)propan-2-yl)benzonitrile]	687
CC(C)(c1ccc(OCc2ccnc(N3CCN(C4CN(CC5CCN(c6ccc7c(c6)C(=O)N(C6CCC(=O)NC6=O)C7=O)C5)C4)CC3)n2)cc1)c1cc(Cl)cc(C#N)c1 (stereo not shown) [Compound 58 trifluoroacetate, 3-chloro-5-(2-(4-((2-(4-(1-((1-(2-(2,6-dioxopiperidin-3-yl)-1,3-dioxoisoindolin-5-yl)pyrrolidin-3-yl)methyl)azetidin-3-yl)piperazin-1-yl)pyrimidin-4-yl)methoxy)phenyl)propan-2-yl)benzonitrile]	744
CC(C)(c1ccc(OCc2ccnc(N3CCN(C4CC5(CCN(C6CC7(CCN(c8ccc9c(c8)C(=O)N(C8CCC(=O)NC8=O)C9=O)CC7)C6)CC5)C4)CC3)n2)cc1)c1cc(Cl)cc(C#N)c1 (stereo not shown) [Compound 59 trifluoroacetate, 3-chloro-5-(2-(4-((2-(4-(7-(2-(2,6-dioxopiperidin-3-yl)-1,3-dioxoisoindolin-5-yl)-7,7′-diaza[2,7′-bispiro[3.5]nonan]-2′-yl)piperazin-1-yl)pyrimidin-4-yl)methoxy)phenyl)propan-2-yl)benzonitrile]	647
CC(C)(c1ccc(OCc2ccnc(N3CCN(C4CCN(CC5CCN(c6ccc7c(c6)C(=O)N(C6CCC(=O)NC6=O)C7=O)C5)C4)CC3)n2)cc1)c1cc(Cl)cc(C#N)c1 (stereo not shown) [Compound 62 trifluoroacetate, 3-chloro-5-(2-(4-((2-(4-(1-((1-(2-(2,6-dioxopiperidin-3-yl)-1,3-dioxoisoindolin-5-yl)pyrrolidin-3-yl)methyl)pyrrolidin-3-yl)piperazin-1-yl)pyrimidin-4-yl)methoxy)phenyl)propan-2-yl)benzonitrile]	735
CC(C)(c1ccc(OCc2ccnc(N3CCN(C4CCN(CC5CCN(c6ccc7c(c6)C(=O)N(C6CCC(=O)NC6=O)C7=O)CC5)C4)CC3)n2)cc1)c1cc(Cl)cc(C#N)c1 (stereo not shown) [Compound 63 trifluoroacetate, 3-chloro-5-(2-(4-((2-(4-(1-((1-(2-(2,6-dioxopiperidin-3-yl)-1,3-dioxoisoindolin-5-yl)piperidin-4-yl)methyl)pyrrolidin-3-yl)piperazin-1-yl)pyrimidin-4-yl)methoxy)phenyl)propan-2-yl)benzonitrile]	593
CC(C)(c1ccc(OCc2ccnc(N3CCC(N4CC(CN5CCN(c6cccc7c6C(=O)N(C6CCC(=O)NC6=O)C7=O)CC5)C4)CC3)n2)cc1)c1cc(Cl)cc(C#N)c1 (stereo not shown) [Compound 65 trifluoroacetate, 3-chloro-5-(2-(4-((2-(4-(3-((4-(2-(2,6-dioxopiperidin-3-yl)-1,3-dioxoisoindolin-4-yl)piperazin-1-yl)methyl)azetidin-1-yl)piperidin-1-yl)pyrimidin-4-yl)methoxy)phenyl)propan-2-yl)benzonitrile]	759
CC(C)(c1ccc(OCc2ccnc(N3CCN(CC4CCN(C5CC6(CCN(c7ccc8c(c7)C(=O)N(C7CCC(=O)NC7=O)C8=O)CC6)C5)C4)CC3)n2)cc1)c1cc(Cl)cc(C#N)c1 (stereo not shown) [Compound 66 trifluoroacetate, 3-chloro-5-(2-(4-((2-(4-((1-(7-(2-(2,6-dioxopiperidin-3-yl)-1,3-dioxoisoindolin-5-yl)-7-azaspiro[3.5]nonan-2-yl)pyrrolidin-3-yl)methyl)piperazin-1-yl)pyrimidin-4-yl)methoxy)phenyl)propan-2-yl)benzonitrile]	584
CC(C)(c1ccc(OCc2ccnc(N3CC4(CCN(CC5CCN(c6ccc7c(c6)C(=O)N(C6CCC(=O)NC6=O)C7=O)CC5)CC4)C3)n2)cc1)c1cc(Cl)cc(C#N)c1 (stereo not shown) [Compound 69 trifluoroacetate, 3-chloro-5-(2-(4-((2-(7-((1-(2-(2,6-dioxopiperidin-3-yl)-1,3-dioxoisoindolin-5-yl)piperidin-4-yl)methyl)-2,7-diazaspiro[3.5]nonan-2-yl)pyrimidin-4-yl)methoxy)phenyl)propan-2-yl)benzonitrile]	371

Further compounds by falling IC50, results first:

IC50 [nM]	Structure (SMILES)
866	CC(C)(c1ccc(OCc2ccnc(N3CCN(C4CC5(CCN(CC6CCN(c7ccc8c(c7)C(=O)N(C7CCC(=O)NC7=O)C8=O)CC6)CC5)C4)CC3)n2)cc1)c1cc(Cl)cc(C#N)c1 (stereo not shown) [Compound 60 trifluoroacetate, 3-chloro-5-(2-(4-((2-(4-(7-((1-(2-(2,6-dioxopiperidin-3-yl)-1,3-dioxoisoindolin-5-yl)piperidin-4-yl)methyl)-7-azaspiro[3.5]nonan-2-yl)piperazin-1-yl)pyrimidin-4-yl)methoxy)phenyl)propan-2-yl)benzonitrile]
716	CC(C)(c1ccc(OCc2ccnc(N3CCN(C4CN(CC5CCN(c6ccc7c(c6)C(=O)N(C6CCC(=O)NC6=O)C7=O)CC5)C4)CC3)n2)cc1)c1cc(Cl)cc(C#N)c1 (stereo not shown) [Compound 56 trifluoroacetate, 3-chloro-5-(2-(4-((2-(4-(1-((1-(2-(2,6-dioxopiperidin-3-yl)-1,3-dioxoisoindolin-5-yl)piperidin-4-yl)methyl)azetidin-3-yl)piperazin-1-yl)pyrimidin-4-yl)methoxy)phenyl)propan-2-yl)benzonitrile]
643	CC(C)(c1ccc(OCc2ccnc(N3CCN(CC4CCN(C5CCCN(c6ccc7c(c6)C(=O)N(C6CCC(=O)NC6=O)C7=O)C5)C4)CC3)n2)cc1)c1cc(Cl)cc(C#N)c1 (stereo not shown) [Compound 67 trifluoroacetate, 3-chloro-5-(2-(4-((2-(4-((1-(1-(2-(2,6-dioxopiperidin-3-yl)-1,3-dioxoisoindolin-5-yl)piperidin-3-yl)pyrrolidin-3-yl)methyl)piperazin-1-yl)pyrimidin-4-yl)methoxy)phenyl)propan-2-yl)benzonitrile]
637	CC(C)(c1ccc(OCc2ccnc(N3CCC(N4CC(N5CCN(c6ccc7c(c6)C(=O)N(C6CCC(=O)NC6=O)C7=O)CC5)C4)CC3)n2)cc1)c1cc(Cl)cc(C#N)c1 (stereo not shown) [Compound 64 trifluoroacetate, 3-chloro-5-(2-(4-((2-(4-(3-(4-(2-(2,6-dioxopiperidin-3-yl)-1,3-dioxoisoindolin-5-yl)piperazin-1-yl)azetidin-1-yl)piperidin-1-yl)pyrimidin-4-yl)methoxy)phenyl)propan-2-yl)benzonitrile]
632	CC(C)(c1ccc(OCc2ccnc(N3CCN(C4CCN(CC5CN(c6ccc7c(c6)C(=O)N(C6CCC(=O)NC6=O)C7=O)C5)C4)CC3)n2)cc1)c1cc(Cl)cc(C#N)c1 (stereo not shown) [Compound 61 trifluoroacetate, 3-chloro-5-(2-(4-((2-(4-(1-((1-(2-(2,6-dioxopiperidin-3-yl)-1,3-dioxoisoindolin-5-yl)azetidin-3-yl)methyl)pyrrolidin-3-yl)piperazin-1-yl)pyrimidin-4-yl)methoxy)phenyl)propan-2-yl)benzonitrile]
